From ChEMBL document CHEMBL5365445, “Discovery of a photosensitizing PI3K inhibitor for tumor therapy: Design, synthesis and in vitro biological evaluation” (Bioorg Med Chem Lett, 2023) come the findings set out here.

The target of data set [1] is T1, Phosphatidylinositol 3-kinase (Mus musculus) (UniProt P26450+P42337). The data set can be described thus: Inhibition of PI3K in mouse B16 cells assessed as reduction in MCL-1 protein expression at 10 to 15 uM incubated for 24 hrs by Western blot analysis. As to conditions: dose 10-15 µM. Type of data set: cell-based. Background: In western blotting, separated proteins are transferred to a membrane and probed.
T1 sequence (P26450 whole entry, looked up): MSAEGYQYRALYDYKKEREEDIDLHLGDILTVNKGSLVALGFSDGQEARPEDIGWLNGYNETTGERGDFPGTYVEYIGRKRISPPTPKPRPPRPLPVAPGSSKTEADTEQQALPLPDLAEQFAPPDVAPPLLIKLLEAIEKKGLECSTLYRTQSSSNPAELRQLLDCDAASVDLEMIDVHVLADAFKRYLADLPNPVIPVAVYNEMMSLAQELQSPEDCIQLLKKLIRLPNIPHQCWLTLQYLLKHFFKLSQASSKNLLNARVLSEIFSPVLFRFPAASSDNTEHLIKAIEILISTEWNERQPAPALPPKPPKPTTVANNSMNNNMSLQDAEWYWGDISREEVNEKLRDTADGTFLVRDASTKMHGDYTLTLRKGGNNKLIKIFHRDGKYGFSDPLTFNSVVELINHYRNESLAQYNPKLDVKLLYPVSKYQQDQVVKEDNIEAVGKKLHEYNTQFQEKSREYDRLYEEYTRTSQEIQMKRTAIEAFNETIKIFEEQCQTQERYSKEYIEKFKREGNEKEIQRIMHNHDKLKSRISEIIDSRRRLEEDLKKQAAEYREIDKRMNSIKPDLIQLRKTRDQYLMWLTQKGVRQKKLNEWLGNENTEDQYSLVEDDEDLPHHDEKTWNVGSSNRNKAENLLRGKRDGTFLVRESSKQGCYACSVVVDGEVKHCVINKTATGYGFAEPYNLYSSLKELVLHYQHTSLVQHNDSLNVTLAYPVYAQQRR
T1 sequence (P42337 whole entry, looked up): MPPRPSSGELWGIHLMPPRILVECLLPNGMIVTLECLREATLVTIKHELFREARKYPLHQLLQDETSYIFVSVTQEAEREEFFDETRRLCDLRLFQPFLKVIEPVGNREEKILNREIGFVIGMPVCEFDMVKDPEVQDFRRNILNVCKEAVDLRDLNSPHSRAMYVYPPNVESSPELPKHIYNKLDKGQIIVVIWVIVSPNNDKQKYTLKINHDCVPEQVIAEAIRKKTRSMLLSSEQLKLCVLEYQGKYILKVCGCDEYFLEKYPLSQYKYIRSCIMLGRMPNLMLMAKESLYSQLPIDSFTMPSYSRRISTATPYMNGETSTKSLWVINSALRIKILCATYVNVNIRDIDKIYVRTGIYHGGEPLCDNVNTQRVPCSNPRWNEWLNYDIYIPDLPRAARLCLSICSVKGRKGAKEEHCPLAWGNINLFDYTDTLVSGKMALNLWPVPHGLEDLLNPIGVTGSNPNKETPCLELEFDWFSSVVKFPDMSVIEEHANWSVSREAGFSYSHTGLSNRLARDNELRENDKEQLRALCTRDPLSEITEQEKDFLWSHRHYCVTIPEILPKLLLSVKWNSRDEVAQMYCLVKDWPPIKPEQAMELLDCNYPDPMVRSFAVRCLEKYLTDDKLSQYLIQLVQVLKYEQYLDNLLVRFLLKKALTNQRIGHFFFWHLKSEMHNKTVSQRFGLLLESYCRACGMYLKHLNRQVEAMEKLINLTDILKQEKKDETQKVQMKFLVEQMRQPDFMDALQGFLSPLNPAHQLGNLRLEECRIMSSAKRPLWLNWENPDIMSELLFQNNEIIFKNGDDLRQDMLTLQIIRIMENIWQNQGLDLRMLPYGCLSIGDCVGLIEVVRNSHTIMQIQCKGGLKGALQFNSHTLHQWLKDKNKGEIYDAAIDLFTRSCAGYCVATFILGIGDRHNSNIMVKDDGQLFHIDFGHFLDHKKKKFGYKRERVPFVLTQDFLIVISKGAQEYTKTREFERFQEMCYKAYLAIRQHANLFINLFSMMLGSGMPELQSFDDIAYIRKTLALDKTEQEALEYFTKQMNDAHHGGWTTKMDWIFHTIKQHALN

In data set [2] the target is T1, Phosphatidylinositol 3-kinase (Mus musculus). Kind of data set: Inhibition of PI3K in mouse B16 cells assessed as reduction in phosphorylation of AKT at T308 residue at 10 to 15 uM incubated for 24 hrs by Western blot analysis. The conditions noted are these: dose 10-15 µM. Type of data set: cell-based.
A short description of data set [3]: Retention time of the compound under 365 nm UV light irradiation by HPLC analysis. Type of data set: physicochemical.
Data set [4] has as its target T1, Phosphatidylinositol 3-kinase (Mus musculus). The data set can be described thus: Inhibition of PI3K in mouse B16 cells assessed as reduction in phosphorylation of AKT at […] residue at 10 to 15 uM incubated for 24 hrs by Western blot analysis. It counts as cell-based. As to conditions: dose 10-15 µM.
The target is the same in data set [5]. The data set can be described thus: Inhibition of PI3K in mouse B16 cells assessed as reduction in phosphorylation of AKT at […] residue at 10 to 15 uM incubated for 24 hrs irradiated with 365 nm uv light for 4 min by Western blot analysis. It counts as cell-based. As to conditions: dose 10-15 µM.
The test system of data set [6] is B16. The data set can be described thus: Induction of apoptosis in mouse B16 cells assessed as early apoptotic cells at 10 uM incubated for 48 hrs by annexin-V/propidium iodide staining based flow cytometry analysis (reference value: 1.39 %). Type of data set: functional. On the technique in general: Flow cytometry measures light scatter and fluorescence of single cells or particles in a stream.

The target in data set [7] is T2, Phosphatidylinositol 4,5-bisphosphate 3-kinase catalytic subunit delta isoform (Homo sapiens, UniProt O00329).
T2 sequence (O00329 whole entry): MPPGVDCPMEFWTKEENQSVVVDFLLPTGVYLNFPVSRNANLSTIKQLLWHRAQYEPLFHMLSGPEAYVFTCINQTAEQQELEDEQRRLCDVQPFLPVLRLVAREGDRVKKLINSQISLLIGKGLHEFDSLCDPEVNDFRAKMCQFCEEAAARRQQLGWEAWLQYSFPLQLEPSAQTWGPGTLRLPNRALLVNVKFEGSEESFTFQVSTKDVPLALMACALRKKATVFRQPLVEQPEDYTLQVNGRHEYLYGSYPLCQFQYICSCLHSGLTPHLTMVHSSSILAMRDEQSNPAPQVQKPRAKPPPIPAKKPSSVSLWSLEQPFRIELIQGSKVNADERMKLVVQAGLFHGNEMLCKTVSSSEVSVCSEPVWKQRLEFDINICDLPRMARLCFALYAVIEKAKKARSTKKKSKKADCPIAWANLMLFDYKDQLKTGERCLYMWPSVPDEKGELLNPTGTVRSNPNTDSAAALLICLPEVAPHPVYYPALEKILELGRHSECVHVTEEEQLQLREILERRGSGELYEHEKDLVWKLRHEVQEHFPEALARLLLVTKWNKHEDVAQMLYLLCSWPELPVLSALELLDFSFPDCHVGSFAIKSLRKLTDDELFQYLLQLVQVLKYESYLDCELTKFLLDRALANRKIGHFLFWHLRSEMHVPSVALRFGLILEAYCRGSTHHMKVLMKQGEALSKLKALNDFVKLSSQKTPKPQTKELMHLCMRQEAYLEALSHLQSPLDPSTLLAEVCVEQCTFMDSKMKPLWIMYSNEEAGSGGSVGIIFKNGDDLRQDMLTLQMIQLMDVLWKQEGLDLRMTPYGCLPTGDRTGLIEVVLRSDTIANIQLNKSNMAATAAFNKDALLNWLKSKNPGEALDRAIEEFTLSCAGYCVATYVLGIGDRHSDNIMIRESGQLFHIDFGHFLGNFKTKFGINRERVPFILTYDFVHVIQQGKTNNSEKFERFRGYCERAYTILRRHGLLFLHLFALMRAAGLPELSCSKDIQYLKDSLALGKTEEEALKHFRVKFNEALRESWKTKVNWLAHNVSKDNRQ
The data set can be described thus: Inhibition of PI3Kdelta (unknown origin).

Data set [8] addresses T1, Phosphatidylinositol 3-kinase (Mus musculus). Kind of data set: Inhibition of PI3K in mouse B16 cells assessed as reduction in phosphorylation of AKT at […] residue incubated for 24 hrs by Western blot analysis. Type of data set: cell-based. As to conditions: dose 10-15 µM.
Data set [9] deals with Phosphatidylinositol 4,5-bisphosphate 3-kinase catalytic subunit beta isoform (Homo sapiens, UniProt P42338). The data set can be described thus: Inhibition of PI3Kbeta (unknown origin).
Sequence of Phosphatidylinositol 4,5-bisphosphate 3-kinase catalytic subunit beta isoform (P42338 whole entry, canonical isoform): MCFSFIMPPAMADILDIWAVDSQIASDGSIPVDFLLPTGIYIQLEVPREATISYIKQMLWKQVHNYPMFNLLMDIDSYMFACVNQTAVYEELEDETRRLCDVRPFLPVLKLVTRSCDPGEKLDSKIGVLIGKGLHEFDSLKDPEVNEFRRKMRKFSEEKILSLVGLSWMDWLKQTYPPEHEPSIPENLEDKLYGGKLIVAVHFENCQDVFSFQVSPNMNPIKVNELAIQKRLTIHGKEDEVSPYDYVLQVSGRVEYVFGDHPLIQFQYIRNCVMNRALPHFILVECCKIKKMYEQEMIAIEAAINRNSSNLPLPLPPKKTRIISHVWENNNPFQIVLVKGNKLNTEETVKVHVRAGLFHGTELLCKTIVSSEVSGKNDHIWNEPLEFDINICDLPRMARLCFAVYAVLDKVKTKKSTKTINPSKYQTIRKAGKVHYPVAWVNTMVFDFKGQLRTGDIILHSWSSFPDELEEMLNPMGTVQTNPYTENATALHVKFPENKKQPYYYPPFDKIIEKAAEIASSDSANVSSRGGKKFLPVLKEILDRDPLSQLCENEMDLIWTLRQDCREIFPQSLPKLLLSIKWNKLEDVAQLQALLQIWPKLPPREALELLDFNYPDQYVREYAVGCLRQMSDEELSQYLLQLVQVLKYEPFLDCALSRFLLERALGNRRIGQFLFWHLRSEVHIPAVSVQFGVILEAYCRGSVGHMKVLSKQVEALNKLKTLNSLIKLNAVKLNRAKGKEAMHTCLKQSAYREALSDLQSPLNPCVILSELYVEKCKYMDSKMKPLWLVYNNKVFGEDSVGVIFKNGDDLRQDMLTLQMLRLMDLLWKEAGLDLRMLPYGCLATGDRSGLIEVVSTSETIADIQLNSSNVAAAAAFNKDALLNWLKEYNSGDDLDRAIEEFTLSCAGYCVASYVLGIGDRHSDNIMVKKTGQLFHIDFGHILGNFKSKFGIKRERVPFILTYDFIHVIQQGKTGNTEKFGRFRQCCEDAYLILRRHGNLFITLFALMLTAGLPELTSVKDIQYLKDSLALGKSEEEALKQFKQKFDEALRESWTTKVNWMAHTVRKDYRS
The test system of data set [10] is B16. Kind of data set: Induction of apoptosis in mouse B16 cells assessed as viable cells at 15 uM incubated for 48 hrs irradiated with 365 nm for 4 mins by annexin-V/propidium iodide staining based flow cytometry analysis (reference value: 96.7 %). Type of data set: functional. As to conditions: B16, light or radiation study, read-out: Activity.
The subject of data set [11] is B16. The data set can be described thus: Induction of cell cycle arrest in mouse B16 cells assessed as cells accumulation at G2/M phase at 10 to 15 uM incubated for 24 hrs irradiated with 365 nm for 4 mins by flow cytometry analysis. It counts as functional, cell-based. The conditions noted are these: dose 10-15 µM.
Data set [12] concerns the target Phosphatidylinositol 4,5-bisphosphate 3-kinase catalytic subunit gamma isoform (Homo sapiens, UniProt P48736). Kind of data set: Inhibition of PI3Kgamma (unknown origin).
Data set [13] concerns B16. Kind of data set: Antiproliferative activity against mouse B16 cells assessed as reduction in cell viability incubated for 48 hrs irradiated with 365 nm uv light for 4 min by CCK-8 assay. It counts as functional, cell-based. As to conditions: B16, light or radiation study.
Data set [14] relates to B16. Kind of data set: Induction of apoptosis in mouse B16 cells assessed as early apoptotic cells at 15 uM incubated for 48 hrs irradiated with 365 nm for 4 mins by annexin-V/propidium iodide staining based flow cytometry analysis (reference value: 2.38 %). It counts as functional.
Data set [15] relates to B16. Kind of data set: Induction of apoptosis in mouse B16 cells assessed as late apoptotic cells at 15 uM incubated for 48 hrs irradiated with 365 nm for 4 mins by annexin-V/propidium iodide staining based flow cytometry analysis (reference value: 0.84 %). It counts as functional.
The subject of data set [16] is B16. Kind of data set: Induction of apoptosis in mouse B16 cells assessed as necrotic cells at 15 uM incubated for 48 hrs irradiated with 365 nm for 4 mins by annexin-V/propidium iodide staining based flow cytometry analysis (reference value: 0.07 %). Type of data set: functional.
The target of data set [17] is T1, Phosphatidylinositol 3-kinase (Mus musculus). The data set can be described thus: Inhibition of PI3K in mouse B16 cells assessed as reduction in MCL-1 protein expression incubated for 24 hrs by Western blot analysis. It counts as cell-based. The conditions noted are these: dose 10-15 µM.
For data set [18], the system named is B16. Kind of data set: Induction of cell cycle arrest in mouse B16 cells assessed as cells accumulation at G2/M phase at 10 to 15 uM incubated for 24 hrs by flow cytometry analysis. As to conditions: dose 10-15 µM. Type of data set: functional, cell-based.
Data set [19] has as its system B16. Kind of data set: Induction of apoptosis in mouse B16 cells assessed as viable cells at 10 uM incubated for 48 hrs irradiated with 365 nm for 4 mins by annexin-V/propidium iodide staining based flow cytometry analysis (reference value: 96.7 %). It counts as functional. The conditions noted are these: B16, light or radiation study, read-out: Activity.
The subject of data set [20] is B16. The data set can be described thus: Induction of apoptosis is in mouse B16 cells assessed as necrotic cells at 10 uM incubated for 48 hrs by annexin-V/propidium iodide staining based flow cytometry analysis (reference value: 0.01 %). Type of data set: functional.
The target in data set [21] is T1, Phosphatidylinositol 3-kinase (Mus musculus). The data set can be described thus: Inhibition of PI3K in mouse B16 cells assessed as reduction in phosphorylation of AKT at T308 residue incubated for 24 hrs by Western blot analysis. Type of data set: cell-based. As to conditions: dose 10-15 µM.
The test system of data set [22] is B16. The data set can be described thus: Induction of apoptosis in mouse B16 cells assessed as early apoptotic cells at 15 uM incubated for 48 hrs by annexin-V/propidium iodide staining based flow cytometry analysis (reference value: 1.39 %). Type of data set: functional.
Data set [23] addresses Phosphatidylinositol 4,5-bisphosphate 3-kinase catalytic subunit alpha isoform (Homo sapiens, UniProt P42336). Kind of data set: Inhibition of PI3Kalpha (unknown origin).
Data set [24] relates to B16. The data set can be described thus: Induction of apoptosis in mouse B16 cells assessed as early apoptotic cells at 10 uM incubated for 48 hrs irradiated with 365 nm for 4 mins by annexin-V/propidium iodide staining based flow cytometry analysis (reference value: 2.38 %). Type of data set: functional.
Data set [25] concerns B16. The data set can be described thus: Induction of apoptosis in mouse B16 cells assessed as viable at 15 uM incubated for 48 hrs by annexin-V/propidium iodide staining based flow cytometry analysis (reference value: 97.4 %). It counts as functional.
The test system of data set [26] is B16. Kind of data set: Induction of apoptosis in mouse B16 cells assessed as late apoptotic cells at 10 uM incubated for 48 hrs irradiated with 365 nm for 4 mins by annexin-V/propidium iodide staining based flow cytometry analysis (reference value: 0.84 %). It counts as functional.
In data set [27] the test system is B16. The data set can be described thus: Induction of apoptosis is in mouse B16 cells assessed as late apoptotic cells at 15 uM incubated for 48 hrs by annexin-V/propidium iodide staining based flow cytometry analysis (reference value: 1.15 %). Type of data set: functional.
The subject of data set [28] is B16. The data set can be described thus: Induction of apoptosis is in mouse B16 cells assessed as necrotic cells at 15 uM incubated for 48 hrs by annexin-V/propidium iodide staining based flow cytometry analysis (reference value: 0.01 %). It counts as functional.
In data set [29] the test system is B16. Kind of data set: Induction of apoptosis in mouse B16 cells assessed as necrotic cells at 10 uM incubated for 48 hrs irradiated with 365 nm for 4 mins by annexin-V/propidium iodide staining based flow cytometry analysis (reference value: 0.07 %). Type of data set: functional.
The target of data set [30] is T1, Phosphatidylinositol 3-kinase (Mus musculus). Kind of data set: Inhibition of PI3K in mouse B16 cells assessed as reduction in MCL-1 protein expression at 10 to 15 uM incubated for 24 hrs irradiated with 365 nm uv light for 4 min by Western blot analysis. Type of data set: cell-based. As to conditions: dose 10-15 µM.
For data set [31] the target is unchanged. Kind of data set: Inhibition of PI3K in mouse B16 cells assessed as reduction in phosphorylation of AKT at T308 residue at 10 to 15 uM incubated for 24 hrs irradiated with 365 nm uv light for 4 min by Western blot analysis. It counts as cell-based. The conditions noted are these: dose 10-15 µM.
A short description of data set [32]: Photorelease activity in PBS assessed as N-(2-chloro-5-(1H-pyrazolo[3,4-b]pyridin-5-yl)pyridin-3-yl) benzene sulfonamide release irradiated with 254 nm incubated for 12 mins by HPLC analysis.
Data set [33] relates to B16. The data set can be described thus: Induction of apoptosis in mouse B16 cells assessed as viable at 10 uM incubated for 48 hrs by annexin-V/propidium iodide staining based flow cytometry analysis (reference value: 97.4 %). It counts as functional.
Data set [34] deals with B16. Kind of data set: Induction of apoptosis in mouse B16 cells assessed as increase in apoptotic cells at 10 uM incubated for 48 hrs by annexin-V/propidium iodide staining based flow cytometry analysis. It counts as functional.
Data set [35] concerns B16. The data set can be described thus: Induction of apoptosis is in mouse B16 cells assessed as late apoptotic cells at 10 uM incubated for 48 hrs by annexin-V/propidium iodide staining based flow cytometry analysis (reference value: 1.15 %). Type of data set: functional.

SMILES strings stand for the structures. Calls of active or inactive are those of the source. The rule behind the calls is not given here. Some results are limits rather than exact numbers.

Sequence of Phosphatidylinositol 4,5-bisphosphate 3-kinase catalytic subunit gamma isoform (P48736 whole entry, canonical isoform): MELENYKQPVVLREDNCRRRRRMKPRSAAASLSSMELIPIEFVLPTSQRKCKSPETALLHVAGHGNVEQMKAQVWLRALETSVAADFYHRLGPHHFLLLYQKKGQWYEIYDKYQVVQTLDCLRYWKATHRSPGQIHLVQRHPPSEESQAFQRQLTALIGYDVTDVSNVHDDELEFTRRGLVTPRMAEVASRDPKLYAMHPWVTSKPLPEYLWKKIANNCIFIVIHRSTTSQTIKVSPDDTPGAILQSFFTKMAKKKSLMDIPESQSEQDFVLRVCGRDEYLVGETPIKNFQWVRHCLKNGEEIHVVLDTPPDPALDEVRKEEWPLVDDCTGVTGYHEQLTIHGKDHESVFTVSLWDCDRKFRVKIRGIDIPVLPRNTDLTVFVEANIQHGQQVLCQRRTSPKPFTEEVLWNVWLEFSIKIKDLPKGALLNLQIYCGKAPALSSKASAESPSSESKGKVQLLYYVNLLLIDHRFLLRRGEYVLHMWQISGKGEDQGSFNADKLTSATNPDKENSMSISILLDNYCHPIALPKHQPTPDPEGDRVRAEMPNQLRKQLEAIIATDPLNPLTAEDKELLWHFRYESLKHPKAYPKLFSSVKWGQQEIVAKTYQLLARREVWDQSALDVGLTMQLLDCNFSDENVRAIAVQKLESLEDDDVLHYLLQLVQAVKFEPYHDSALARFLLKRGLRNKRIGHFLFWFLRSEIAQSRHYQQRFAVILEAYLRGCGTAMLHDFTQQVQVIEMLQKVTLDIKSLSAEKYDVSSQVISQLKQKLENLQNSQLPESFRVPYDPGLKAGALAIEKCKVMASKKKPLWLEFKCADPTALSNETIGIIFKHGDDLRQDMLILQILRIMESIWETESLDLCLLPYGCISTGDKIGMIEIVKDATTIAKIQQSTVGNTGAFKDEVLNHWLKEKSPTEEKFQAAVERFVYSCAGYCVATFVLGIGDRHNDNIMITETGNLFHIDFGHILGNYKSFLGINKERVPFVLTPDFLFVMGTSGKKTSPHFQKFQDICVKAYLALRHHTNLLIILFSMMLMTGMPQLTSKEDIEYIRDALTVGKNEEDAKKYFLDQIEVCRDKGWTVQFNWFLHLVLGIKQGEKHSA
Sequence of Phosphatidylinositol 4,5-bisphosphate 3-kinase catalytic subunit alpha isoform (P42336 whole entry, canonical isoform): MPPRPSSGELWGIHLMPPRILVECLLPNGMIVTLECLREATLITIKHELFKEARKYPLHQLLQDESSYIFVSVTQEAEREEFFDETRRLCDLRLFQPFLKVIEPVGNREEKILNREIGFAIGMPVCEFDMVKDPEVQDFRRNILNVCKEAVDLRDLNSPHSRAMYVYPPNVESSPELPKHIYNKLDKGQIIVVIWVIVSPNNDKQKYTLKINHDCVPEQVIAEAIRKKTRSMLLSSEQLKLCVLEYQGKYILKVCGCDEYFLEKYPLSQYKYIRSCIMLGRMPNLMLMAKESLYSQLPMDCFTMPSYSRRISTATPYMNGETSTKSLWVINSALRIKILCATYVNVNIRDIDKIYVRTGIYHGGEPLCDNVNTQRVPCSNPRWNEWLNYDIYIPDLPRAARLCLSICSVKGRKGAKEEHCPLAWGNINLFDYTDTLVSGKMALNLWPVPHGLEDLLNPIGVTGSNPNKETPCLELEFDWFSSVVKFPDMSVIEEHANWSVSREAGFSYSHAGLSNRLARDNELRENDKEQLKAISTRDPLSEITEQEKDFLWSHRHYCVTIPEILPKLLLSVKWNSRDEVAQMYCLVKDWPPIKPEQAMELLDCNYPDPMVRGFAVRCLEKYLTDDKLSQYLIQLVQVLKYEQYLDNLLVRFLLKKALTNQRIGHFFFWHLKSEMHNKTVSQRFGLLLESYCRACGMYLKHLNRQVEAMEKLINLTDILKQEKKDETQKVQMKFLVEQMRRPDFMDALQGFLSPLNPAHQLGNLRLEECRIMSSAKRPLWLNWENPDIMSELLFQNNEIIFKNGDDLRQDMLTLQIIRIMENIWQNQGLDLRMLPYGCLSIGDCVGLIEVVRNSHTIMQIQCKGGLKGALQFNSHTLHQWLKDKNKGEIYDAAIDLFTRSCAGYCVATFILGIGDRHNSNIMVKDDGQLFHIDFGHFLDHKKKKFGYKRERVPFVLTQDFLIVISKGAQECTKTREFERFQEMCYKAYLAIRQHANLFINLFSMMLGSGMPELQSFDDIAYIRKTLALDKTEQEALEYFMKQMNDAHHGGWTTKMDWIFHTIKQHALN

In the case of `O=S(=O)(Nc1cc(-c2cnc3[nH]ncc3c2)cnc1Cl)c1ccccc1`, the inhibition entry in data set [1], in [2] and in [4] was “Active” throughout. For the same compound, the Retention_time in data set [3] is on record as 7.9 min.

For `COc1cc(COC(=O)n2ncc3cc(-c4cnc(Cl)c(NS(=O)(=O)c5ccccc5)c4)cnc32)c([N+](=O)[O-])cc1OC`, the inhibition entry in [5], in data set [30] and in data set [31] was “Active” throughout. In addition, the Activity in the data set with B16 [6] amounted to 3.16%; with B16 [14], 14.4%; in the data set with B16 [15], 14.7%; in the data set with B16 [16] it was 1.27%; in the data set on B16 [20] it was 0%; with B16 [22] it was 7.13%. Further, the Activity in the data set with B16 [24] amounted to 8.04%; in the data set with B16 [25] it was 88.1%; with B16 [26] it was 3.49%; with B16 [27] it was 3.42%; in the data set on B16 [28], 1.3%; in the data set on B16 [29], 0%. In addition, the figures for the Activity in the data set on B16 [33], with B16 [34] and in the data set with B16 [35] were 95.6%, below 10% and 1.25%, respectively. Moreover, the IC50 (commonly the concentration at which inhibition is half-maximal) in [7] came out at 14 nM; in [9], 83 nM; in [12] it was 84 nM; with B16 [13] it was 8800 nM; in data set [23], 43 nM. The inhibition result in [8], in data set [17] and in data set [21] was “Dose-Dependent Effect” in each case. In the data set with B16 [10], the viability at 15 µM is 69.6%. Further, the result with B16 [11] and in the data set on B16 [18] was Active. Further, in the data set with B16 [19], the viability at 10 µM was 88.5%. The Retention_time in data set [3] stood at 10.4 min. The Drug metabolism in data set [32] was above 98%.
